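Five compound concentrations were applied to cells in 96-well plates for 48 hours; endpoints were derived by simple linear interpolation of the resulting dose-response curve. Abbreviation: GI50, concentration required for 50% inhibition of growth.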 Activity calls are given as the source filed them. Cut-off read from the data, not from the text of the source: active = GI50 up to about 1.1 µM and inactive = higher.
What was measured:
Assay in all cases: NCI tumour cell line growth inhibition, 48 h
[1] = test system: SK-MEL-28
[2] = test system: KM12
[3] = test system: MOLT-4
[4] = test system: NCI-H23
[5] = test system: HCC 2998
[6] = test system: K562
[7] = test system: OVCAR-4
[8] = test system: SF-295
[9] = test system: M14
[10] = test system: HOP-92
[11] = test system: UACC-62
[12] = test system: OVCAR-3
[13] = test system: EKVX
[14] = test system: U-251
[15] = test system: 786-0
[16] = test system: SF-539
[17] = test system: SW-620
[18] = test system: SK-MEL-2

Row | SMILES | GI50 [1] | GI50 [2] | GI50 [3] | GI50 [4] | GI50 [5] | GI50 [6] | GI50 [7] | GI50 [8] | GI50 [9] | GI50 [10] | GI50 [11] | GI50 [12] | GI50 [13] | GI50 [14] | GI50 [15] | GI50 [16] | GI50 [17] | GI50 [18]
1 | COC(=O)C(C(=O)C(=O)Nc1nc2ccc(OC)cc2s1)c1cnc2ccccc2n1 (stereo not drawn) | > 100 µM (inactive) | > 100 µM (inactive) | > 100 µM (inactive) | > 100 µM (inactive) | > 100 µM (inactive) | > 100 µM (inactive) | > 100 µM (inactive) | > 100 µM (inactive) | > 100 µM (inactive) | > 100 µM (inactive) | > 100 µM (inactive) | > 100 µM (inactive) | > 100 µM (inactive) | > 100 µM (inactive) | > 100 µM (inactive) | > 100 µM (inactive) | > 100 µM (inactive) | 
2 | FC(F)(F)c1ccccc1C1SCc2nc3ccccc3n21 (stereo not drawn) | 77.8 µM (inactive) | 70.8 µM (inactive) | 23.9 µM (inactive) | 34 µM (inactive) | > 100 µM (inactive) | 16.2 µM (inactive) |  | 57.1 µM (inactive) |  | 4.67 µM (inactive) | 22.5 µM (inactive) | 40.1 µM (inactive) | 41.1 µM (inactive) | 88.5 µM (inactive) | > 100 µM (inactive) | 85.7 µM (inactive) | > 100 µM (inactive) | 99.3 µM (inactive)
3 | CCN1C(=O)C/C(=C\C(C)=O)Nc2ccccc21 | > 100 µM (inactive) | > 100 µM (inactive) | > 100 µM (inactive) | > 100 µM (inactive) | > 100 µM (inactive) | > 100 µM (inactive) | > 100 µM (inactive) | > 100 µM (inactive) | > 100 µM (inactive) | > 100 µM (inactive) | > 100 µM (inactive) | > 100 µM (inactive) | > 100 µM (inactive) | > 100 µM (inactive) | > 100 µM (inactive) | > 100 µM (inactive) | > 100 µM (inactive) | > 100 µM (inactive)
4 | Oc1ccccc1/C=N/c1ccccc1/N=C/c1ccccc1O | > 100 µM (inactive) | > 100 µM (inactive) | 16.1 µM (inactive) | 38.3 µM (inactive) | > 100 µM (inactive) | 21.5 µM (inactive) |  | 88.9 µM (inactive) | > 100 µM (inactive) |  |  | 36.6 µM (inactive) | > 100 µM (inactive) | 30.9 µM (inactive) | > 100 µM (inactive) | 71.3 µM (inactive) | > 100 µM (inactive) | 
5 | CN(C)c1snc2c1c(=O)n(C)c(=O)n2C | > 100 µM (inactive) |  | > 100 µM (inactive) | > 100 µM (inactive) | > 100 µM (inactive) | > 100 µM (inactive) | > 100 µM (inactive) | > 100 µM (inactive) |  |  | > 100 µM (inactive) | > 100 µM (inactive) | 40.1 µM (inactive) | > 100 µM (inactive) | > 100 µM (inactive) | > 100 µM (inactive) | > 100 µM (inactive) | > 100 µM (inactive)
6 | CN1CCN(CCSC2Cc3cc(Cl)ccc3Sc3ccccc32)CC1 (stereo not drawn) | 1.86 µM (inactive) | 3.46 µM (inactive) | 2.44 µM (inactive) | 7.89 µM (inactive) | 4.18 µM (inactive) | 1.71 µM (inactive) | 6.81 µM (inactive) | 4.18 µM (inactive) | 1.91 µM (inactive) | 4.5 µM (inactive) | 1.91 µM (inactive) | 8.2 µM (inactive) | 15.1 µM (inactive) | 5.4 µM (inactive) | 4.55 µM (inactive) | 3.15 µM (inactive) | 2.81 µM (inactive) | 1.86 µM (inactive)
7 | CCOC(=O)N1c2c(ccn2C)-c2ccn(C)c2N1C(=O)OCC |  | 19.9 µM (inactive) | 6.18 µM (inactive) |  | 19.6 µM (inactive) | 4.2 µM (inactive) | > 10 µM (inactive) | 15.3 µM (inactive) | 15.1 µM (inactive) | 20.6 µM (inactive) | 16.7 µM (inactive) | 14.1 µM (inactive) |  |  | 11.1 µM (inactive) | 20 µM (inactive) | 15.2 µM (inactive) | 21.4 µM (inactive)
8 | N=CCCN(CCC=N)c1ccc(/C=C2\CN(NC(=O)c3ccc(Cl)cc3)C(c3ccccc3)=N2)cc1 | > 100 µM (inactive) | > 100 µM (inactive) | > 100 µM (inactive) | > 100 µM (inactive) | > 100 µM (inactive) | > 100 µM (inactive) | > 100 µM (inactive) | > 100 µM (inactive) | > 100 µM (inactive) | > 100 µM (inactive) | > 100 µM (inactive) | > 100 µM (inactive) | > 100 µM (inactive) | 25.8 µM (inactive) | 90.2 µM (inactive) | > 100 µM (inactive) | 15.6 µM (inactive) | > 100 µM (inactive)
9 | COc1ccc(CC#N)c(OCc2ccccc2)c1 | 23.9 µM (inactive) | 61.5 µM (inactive) | 30.3 µM (inactive) | 77.8 µM (inactive) | 29.9 µM (inactive) | 58.6 µM (inactive) | 71.6 µM (inactive) | 60 µM (inactive) | 35.6 µM (inactive) |  | 28.8 µM (inactive) | 80.5 µM (inactive) | 30.7 µM (inactive) |  | > 100 µM (inactive) | > 100 µM (inactive) | 31 µM (inactive) | 
10 | NC(=O)c1cc(C2OC(CO)C(O)C2O)nn1-c1ccc([N+](=O)[O-])cc1 (stereo not drawn) | > 100 µM (inactive) | > 100 µM (inactive) | > 100 µM (inactive) | > 100 µM (inactive) | > 100 µM (inactive) | > 100 µM (inactive) | > 100 µM (inactive) | > 100 µM (inactive) | > 100 µM (inactive) | > 100 µM (inactive) | > 100 µM (inactive) | > 100 µM (inactive) | > 100 µM (inactive) | > 100 µM (inactive) | > 10 µM (inactive) | > 100 µM (inactive) | 43.3 µM (inactive) | > 100 µM (inactive)
11 | CC(=O)C1=CCC2c3[nH]c4ccccc4c3CCN2C1 (stereo not drawn) | > 100 µM (inactive) | 52.6 µM (inactive) | 42.1 µM (inactive) | 46.7 µM (inactive) | 55 µM (inactive) | 31 µM (inactive) | 35.6 µM (inactive) | 98.6 µM (inactive) | > 100 µM (inactive) | 36.3 µM (inactive) |  | 31.7 µM (inactive) | 67.1 µM (inactive) | 54.5 µM (inactive) | 35.1 µM (inactive) | 26.6 µM (inactive) | > 100 µM (inactive) | 66.4 µM (inactive)
12 | CCOc1ccc(NC2=NC(=O)C(CC(=O)Nc3ccc(Cl)cc3Cl)S2)cc1 (stereo not drawn) | > 100 µM (inactive) | > 100 µM (inactive) | 43.8 µM (inactive) | > 100 µM (inactive) | > 100 µM (inactive) | > 100 µM (inactive) | > 100 µM (inactive) | > 100 µM (inactive) | > 100 µM (inactive) |  | > 100 µM (inactive) | > 100 µM (inactive) | > 100 µM (inactive) | > 100 µM (inactive) | > 100 µM (inactive) | > 100 µM (inactive) | > 100 µM (inactive) | > 100 µM (inactive)
13 | O=c1c2ccccc2oc2ccccc12.Oc1cccc2cccnc12 |  | 5.3 µM (inactive) | 0.607 µM (active) |  | 1.88 µM (inactive) | 4.99 µM (inactive) | 5.89 µM (inactive) | 2.23 µM (inactive) | 3.11 µM (inactive) |  | 3.76 µM (inactive) | 5.53 µM (inactive) | 3.44 µM (inactive) |  | 1.66 µM (inactive) | 2.36 µM (inactive) | 1.77 µM (inactive) | 
14 | C[C@@H]1O[C@@H](O[C@H]2[C@H](Oc3cc(O)c4c(=O)cc(-c5ccc(O)cc5)oc4c3)O[C@H](CO)[C@@H](O)[C@@H]2O)[C@H](O)[C@H](O)[C@H]1O [RHOIFOLIN] | > 100 µM (inactive) | > 100 µM (inactive) | > 100 µM (inactive) | > 100 µM (inactive) |  | > 100 µM (inactive) | > 100 µM (inactive) | > 100 µM (inactive) | > 100 µM (inactive) | > 100 µM (inactive) | > 100 µM (inactive) | > 100 µM (inactive) | > 100 µM (inactive) | > 100 µM (inactive) | > 100 µM (inactive) | > 100 µM (inactive) |  | > 100 µM (inactive)
15 | O=C(O)c1ccc(/N=N/c2cc(S(=O)(=O)O)c3cccnc3c2O)cc1 | > 100 µM (inactive) | > 100 µM (inactive) | > 100 µM (inactive) | > 100 µM (inactive) | > 100 µM (inactive) | > 100 µM (inactive) | > 100 µM (inactive) | > 100 µM (inactive) |  | > 100 µM (inactive) |  | > 100 µM (inactive) | > 100 µM (inactive) | > 100 µM (inactive) | > 100 µM (inactive) | > 100 µM (inactive) | > 100 µM (inactive) | > 100 µM (inactive)
16 | CCCCOC(=O)NC(=O)c1cn(CCSCCOC(=O)NCCCCCCNC(=O)OCCSCCn2cc(C(=O)NC(=O)OCCCC)c(=O)[nH]c2=O)c(=O)[nH]c1=O | > 100 µM (inactive) | > 100 µM (inactive) |  | 27.4 µM (inactive) | > 100 µM (inactive) | > 100 µM (inactive) | > 100 µM (inactive) | 26.6 µM (inactive) | 58.9 µM (inactive) | 21.5 µM (inactive) | 41.5 µM (inactive) | > 100 µM (inactive) | 91.4 µM (inactive) | 23.4 µM (inactive) | 32.3 µM (inactive) | > 100 µM (inactive) | > 10 µM (inactive) | 56.9 µM (inactive)
17 | O=C(O)CN(c1ccccc1)S(=O)(=O)c1ccc(Cl)cc1 | > 100 µM (inactive) |  | > 100 µM (inactive) | > 100 µM (inactive) |  | > 100 µM (inactive) | > 100 µM (inactive) |  | > 100 µM (inactive) | > 100 µM (inactive) | > 100 µM (inactive) |  | > 100 µM (inactive) | > 100 µM (inactive) | > 100 µM (inactive) | > 100 µM (inactive) | > 100 µM (inactive) | > 100 µM (inactive)
